In patent publication US7888390B2, “Preparation of platinum(II) complexes” (Platco Technologies (Proprietary) Limited, priority 2003, dated 2011):

Key:
Type in all cases: cell-based
cervical cancer cells = assay: Anticancer testing, inhibition of cervical cancer cells, 5% foetal calf serum medium; settings: 5% foetal calf serum as medium
breast cancer = assay: Anticancer testing, inhibition on breast cancer, medium containing 10 mM glutathione; settings: 100 μM solution
colon cancer cells = assay: Anticancer testing, inhibition of colon cancer cells, medium containing 10 mM glutathione; settings: 100 μM

SMILES | percentage inhibition on cervical cancer cells (cervical cancer cells; 10 μM solution) [%] | percentage inhibition on cervical cancer cells (cervical cancer cells; 100 μM solution) [%] | inhibition on breast cancer (breast cancer) [%] | inhibition of colon cancer cells (colon cancer cells) [%]
CSCCCc1nccn1C.O=C([O-])C(=O)[O-].[Pt+2] [Example 6, oxalato(1-methyl-2-methylthiopropylimidazole)platinum(II)] | 88.6 | 97.7 | 72 | 85
N.N.[Cl][Pt][Cl] [cisplatin] | 85.4 | 95.3 | 10 | 48
